Measured values reported in patent US20070196763A1, “Method of forming laminated resist” (DAIKIN INDUSTRIES, LTD., priority 2003, published 2007).
Values joined by “and” are separate entries in the source; they are usually repeats but may differ in a detail not shown here. Equal entries are not always repeated.

Columns and labels:
[1] = Determination of pKa value of monomer having hydrophilic group by NaOH titration
Experimental: In a water/acetone mixture (10/15 ml) solution was poured 0.7865 g of CH2═CHCH2C(CF3)2OH, followed by stirring at room temperature. After it was confirmed that the solution was homogeneous, titration was carried out with about 0.2 mol/L NaOH solution. A titration curve was obtained by adding the NaOH solution dropwise in increments of 0.15 ml and recording a pH value at every addition. An equivalence point was determined by an inflection point (maximum differential value of titration curve=dpH/dml) of the titration curve.

[2] = physchem
[3] = monomer having hydrophilic group used in the Preparation Example, NaOH titration in water/acetone, corrected
[4] = water/acetone mixture, pKa, monomer having hydrophilic group used in the Preparation Example, corrected

| SMILES | pKa [1, 3] | pKa [1, 4] | other results |
| --- | --- | --- | --- |
| C=C(F)C(F)(F)OC(F)(C(F)(F)F)C(F)(F)OC(F)(C(F)(F)F)C(F)(F)OC(F)(C(F)(F)F)C(F)(F)OC(F)(C(=O)O)C(F)(F)F (centres unmarked) [perfluoro-(15,15-dihydro-2,5,8,11-tetrakistrifluoromethyl-3,6,9,12-tetraoxa-14-pentadecenic acid)] | 4.0 |  |  |
| C=CCC(O)(C(F)(F)F)C(F)(F)F [CH2═CHCH2C(CF3)2OH, 1,1-bistrifluoromethyl-3-buten-1-ol] |  | 9.6 | pKa value (single titration) ([1]; NaOH titration in water/acetone, pH at half equivalence point minus blank difference): 9.64 and 9.54; pKa ([1]; water/acetone mixture, pKa value (decided from experiments carried out three times), NaOH titration in water/acetone): 9.6; pKa ([1]; water/acetone mixture, pKa value (single titration), NaOH titration in water/acetone, pH at half equivalence point minus blank difference): 9.69 |
| C=C(C(=O)O)C(F)(F)F [2-(trifluoromethyl)acrylic acid] |  | 3.9 |  |
| O=C(O)/C=C\C(=O)O [Maleic acid] |  | 1.4 |  |
| C=C(F)C(F)(F)OC(F)(C(=O)O)C(F)(F)F (centres unmarked) [perfluoro-(6,6-dihydro-2-trifluoromethyl-3-oxa-5-hexenoic acid)] |  |  | pKa [2]: 3.4 |
| C=C(F)C(F)(F)OC(F)(C(F)(F)F)C(F)(F)OC(F)(C(=O)O)C(F)(F)F (centres unmarked) [perfluoro-(9,9-dihydro-2,5-bistrifluoromethyl-3,6-dioxa-8-nonenoic acid)] | 3.6 |  |  |
| C=C(F)C(F)(F)OC(F)(C(F)(F)F)C(F)(F)OC(F)(CO)C(F)(F)F (centres unmarked) [(1,1,9,9-tetrahydro-2,5-bistrifluoromethyl-3,6-dioxa-8-nonenol)] | 12.6 |  |  |
| C=C(F)C(F)(F)OC(F)(C(F)(F)F)C(F)(F)OC(F)(C(F)(F)F)C(F)(F)OC(F)(C(=O)O)C(F)(F)F (centres unmarked) [perfluoro-(12,12-dihydro-2,5,8-tristrifluoromethyl-3,6,9-trioxa-11-dodecenic acid)] | 3.8 |  |  |
